Molecular target: mitochondrial RNA polymerase (POLRMT) (Mus musculus, UniProt Q8BKF1)
Experiment: Homogeneous TR-FRET assay for mitochondrial transcription activity
Assay type: biochemical
Settings: homogeneous TR-FRET assay according to Example 4
Source text: The TR-FRET assay was basically conducted as described in WO2016/193231A1, especially as described in example 1 (hereby incorporated by reference). With respect to the back ground of the mitochondrial transcription it is referred to Falkenberg et al. (2002) and Posse et al. (Posse et al., 2015). The method monitors the activity of mitochondrial RNA-polymerase via detection of the formation of its product, a 407 bp long RNA sequence. Detection of the product is facilitated by hybridization of two DNA-oligonucleotide probes to specific and adjacent sequences within the RNA product sequence. Upon annealing of the probes, two fluorophores that are coupled directly to an acceptor nucleotide probe (ATT0647, 5′) or introduced via a coupled streptavidin interacting with a biotinylated donor nucleotide probe on the other side (Europium cryptate, 3′) are brought into sufficient proximity to serve as a fluorescence-donor-acceptor pair as generally described in Walters and Namchuk (2003). Thus, a FRET signal at 665 nm is generated upon excitation at 340 nm.
Briefly, the protocol described here was applied for screening and activity determination in a low-volume 384-well microtiter plate with non-binding surface. For high-throughput application in the 1536-well microtiter plate format, volumes of the reagent mixes were adjusted, maintaining the volumetric ratio. Proteins POLRMT (NM_172551.3), TFAM (NM_009360.4) and TFB2M (NM_008249.4) were diluted from their stocks to working concentrations of 150 nM, 1.8 μM and 330 nM respectively, in a dilution buffer containing 100 mM Tris-HCl pH 8.0, 200 mM NaCl, 10% (v/v) glycerole, 2 mM glutathione (GSH), 0.5 mM EDTA and 0.1 mg/mL BSA. Protein dilutions and template DNA, comprising a pUC18 plasmid encoding the mitochondrial light strand promoter, restriction linearized proximal to the promoter 3′-end (pUC-LSP), were mixed at the twofold final assay-concentration in a reaction buffer, containing 10 mM Tris-HCl pH 7.5, 10 mM MgCl2, 40 mM NaCl, 2 mM GSH, 0.01% (w/v) Tween-20 and 0.1 mg/mL BSA.
5 μL of this mix were dispensed, depending on the chosen microtiter plate format, using multi-channel pipettes or a Multidrop® dispenser (Thermo Fisher Scientific, Waltham Mass.) into the wells of a microtiter plate and incubated at room temperature (rt) for 10 min. Chemical compounds under scrutiny in the assay were applied using contact-free acoustic droplet-dispensing (Echo520® Labcyte Inc., Sunnyvale Calif.) from 10 mM compound stocks in 100% DMSO, to a final concentration of 10 μM or in serial dilution series of the required concentration range. Equal amounts of DMSO without any compound were added to positive control samples, followed by an incubation step at rt for 10 min.
The enzymatic reaction was started by the addition of 5 μL of a mix of dNTPs in reaction buffer to a final concentration of 500 μM each. No nucleotide mix was added to negative control samples. The content of the wells was mixed using a VarioTeleshaker™ (Thermo Fisher Scientific, Waltham Mass.) at 1500 rpm for 45 sec after which the microtiter plate was centrifuged at 500×g for 1 min. The samples were incubated for 2 h at rt with humidity control to avoid evaporation. The detection reagents were prepared in a buffer that was composed, such that the enzymatic reaction was terminated due to chelating of Mg-ions and increased ionic strength, containing 50 mM Tris-HCl pH 7.5, 700 mM NaCl, 20 mM EDTA, and 0.01% (w/v) Tween-20. Importantly Eu-cryptate-coupled streptavidin had to be preincubated with a 100-fold molar excess of a random sequence oligonucleotide for 10 min at rt in the dark to block unspecific binding of single stranded RNA to the protein. Subsequently, the blocked streptavidin(-Eu) was mixed with the DNA-probes on ice and kept away from light until use. […]

Sequence of mitochondrial RNA polymerase (POLRMT) (Q8BKF1 42-1207): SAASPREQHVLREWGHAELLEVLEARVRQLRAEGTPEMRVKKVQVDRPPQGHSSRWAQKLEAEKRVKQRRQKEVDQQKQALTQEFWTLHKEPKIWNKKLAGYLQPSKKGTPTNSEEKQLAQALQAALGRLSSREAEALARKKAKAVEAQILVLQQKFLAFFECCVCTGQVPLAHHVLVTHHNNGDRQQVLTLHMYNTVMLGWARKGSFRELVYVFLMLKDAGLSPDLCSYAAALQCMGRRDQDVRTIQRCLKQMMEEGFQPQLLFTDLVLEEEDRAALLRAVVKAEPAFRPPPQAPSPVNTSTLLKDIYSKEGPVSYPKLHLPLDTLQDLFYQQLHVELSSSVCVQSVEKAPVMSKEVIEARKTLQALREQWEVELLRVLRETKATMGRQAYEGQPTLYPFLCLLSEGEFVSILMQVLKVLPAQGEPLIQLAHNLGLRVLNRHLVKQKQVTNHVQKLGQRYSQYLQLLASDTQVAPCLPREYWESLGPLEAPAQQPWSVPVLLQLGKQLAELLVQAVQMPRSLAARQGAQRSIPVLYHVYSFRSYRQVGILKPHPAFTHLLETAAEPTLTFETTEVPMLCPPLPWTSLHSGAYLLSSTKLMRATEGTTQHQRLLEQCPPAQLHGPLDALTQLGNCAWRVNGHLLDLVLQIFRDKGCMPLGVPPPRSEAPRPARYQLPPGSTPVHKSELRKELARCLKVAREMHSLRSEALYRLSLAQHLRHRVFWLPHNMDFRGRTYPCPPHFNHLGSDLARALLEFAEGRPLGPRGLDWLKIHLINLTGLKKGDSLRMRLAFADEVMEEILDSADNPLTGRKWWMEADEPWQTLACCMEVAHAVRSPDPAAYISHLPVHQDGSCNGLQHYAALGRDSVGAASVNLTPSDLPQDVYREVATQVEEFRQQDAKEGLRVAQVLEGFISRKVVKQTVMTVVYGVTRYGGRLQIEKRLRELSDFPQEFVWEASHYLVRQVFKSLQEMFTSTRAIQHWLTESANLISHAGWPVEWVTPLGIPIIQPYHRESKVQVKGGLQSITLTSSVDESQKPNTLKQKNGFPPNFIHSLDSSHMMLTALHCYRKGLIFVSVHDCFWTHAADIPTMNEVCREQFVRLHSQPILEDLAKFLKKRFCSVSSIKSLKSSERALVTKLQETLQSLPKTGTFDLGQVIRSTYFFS

IC50 | Structure (SMILES)
1 to 10 µM | CC(C)NC(=O)C(C)Oc1ccc2c(-c3ccc(F)cc3Cl)ccnc2n1 (racemic) [Compound 109, 2-[[5-(2-chloro-4-fluoro-phenyl)-1,8-naphthyridin-2-yl]oxy]-N-isopropyl-propanamide]
1 to 10 µM | Cc1ccccc1-c1ccnc2cc(OCC(N)=O)ccc12 [Compound 106, 2-((4-(o-tolyl)quinolin-7-yl)oxy)acetamide]
1 to 10 µM | C[C@@H](Oc1ccc2c(-c3ccc(F)cc3Cl)cc(Cl)nc2c1)C(=O)N1CCCCC1 [Compound 107, (2R)-2-[[2-chloro-4-(2-chloro-4-fluoro-phenyl)-7-quinolyl]oxy]-1-(1-piperidyl)propan-1-one]
0.1 to 1 µM | CCOC(=O)c1ccc(NC(=O)[C@@H](C)Oc2ccc3c(-c4ccc(F)cc4Cl)ccnc3c2)cc1 [Compound 51, ethyl 4-[[(2R)-2-[[4-(2-chloro-4-fluoro-phenyl)-7-quinolyl]oxy]propanoyl]amino]benzoate]
1 to 10 µM | C[C@@H](Oc1ccc2c(-c3ccccc3Cl)cc(Cl)nc2c1)C(=O)N1CCN(C(=O)CN)CC1 [Compound 85, (2R)-1-[4-(2-aminoacetyl)piperazin-1-yl]-2-[[2-chloro-4-(2-chlorophenyl)-7-quinolyl]oxy]propan-1-one]
1 to 10 µM | C[C@@H](Oc1ccc2c(-c3ccccc3OC(F)(F)F)ccnc2c1)C(=O)N1CCC[C@H](CC(=O)O)C1 [Compound 137, 2-[(3R)-1-[(2R)-2-[[4-[2-(trifluoromethoxy)phenyl]-7-quinolyl]oxy]propanoyl]-3-piperidyl]acetic acid]
1 to 10 µM | CC(C)c1ccccc1-c1ccnc2cc(O[C@H](C)C(=O)N3CCC[C@H](CC(=O)O)C3)ccc12 [Compound 122, 2-[(3R)-1-[(2R)-2-[[4-(2-isopropylphenyl)-7-quinolyl]oxy]propanoyl]-3-piperidyl]acetic acid]
1 to 10 µM | C[C@@H](Oc1ccc2c(-c3ccc(F)cc3Cl)ccnc2c1)C(=O)N1C[C@H]2C[C@@H]1CN2 [Compound 217, (2R)-2-[[4-(2-chloro-4-fluoro-phenyl)-7-quinolyl]oxy]-1-[(1R)-2,5-diazabicyclo[2.2.1]heptan-2-yl]propan-1-one]
0.02 to 0.1 µM | C[C@@H](Oc1ccc2c(-c3cccc(F)c3Cl)ccnc2c1)C(=O)N1CCC[C@H](CC(=O)O)C1 [Compound 65, 2-[(3R)-1-[(2R)-2-[[4-(2-chloro-3-fluoro-phenyl)-7-quinolyl]oxy]propanoyl]-3-piperidyl]acetic acid]
0.1 to 1 µM | COC(=O)C1CC(NC(=O)[C@@H](C)Oc2ccc3c(-c4ccc(F)cc4Cl)ccnc3c2)C1 (stereo partly drawn) [Compound 54, methyl 3-[[(2R)-2-[[4-(2-chloro-4-fluoro-phenyl)-7-quinolyl]oxy]propanoyl]amino]cyclobutanecarboxylate]
1 to 10 µM | C[C@@H](Oc1ccc2c(-c3ccccc3Cl)cc(F)nc2c1)C(=O)O [Compound 90, (2R)-2-[[4-(2-chlorophenyl)-2-fluoro-7-quinolyl]oxy]propanoic acid]
0.1 to 1 µM | C[C@@H](Oc1ccc2c(-c3ccccc3C#N)ccnc2c1)C(=O)N1CCC[C@H](CC(=O)O)C1 [Compound 143, 2-[(3R)-1-[(2R)-2-[[4-(2-cyanophenyl)-7-quinolyl]oxy]propanoyl]-3-piperidyl]acetic acid]
0.1 to 1 µM | C[C@@H](Oc1ccc2c(-c3ccc(F)cc3Cl)ccnc2c1)C(=O)O [Compound 44, (R)-2-((4-(2-chloro-4-fluorophenyl)quinolin-7 yl)oxy)propanoic acid]
< 0.02 µM | Cc1cccc(C)c1-c1ccnc2cc(O[C@H](C)C(=O)N3CCC[C@H](S(N)(=O)=O)C3)ccc12 [Compound 138, (3S)-1-[(2R)-2-[[4-(2,6-dimethylphenyl)-7-quinolyl]oxy]propanoyl]piperidine-3-sulfonamide]
1 to 10 µM | CC(C)OC(=O)COc1ccc2c(-c3ccccc3Cl)ccnc2c1 [Compound 82, isopropyl 2-[[4-(2-chlorophenyl)-7-quinolyl]oxy]acetate]
< 0.02 µM | Cc1cccc(Cl)c1-c1ccnc2cc(O[C@H](C)C(=O)N3CCC[C@H](CC(=O)O)C3)ccc12 [Compound 141, 2-[(3R)-1-[(2R)-2-[[4-(2-chloro-6-methyl-phenyl)-7-quinolyl]oxy]propanoyl]-3-piperidyl]acetic acid]
0.02 to 0.1 µM | CCC(Oc1ccc2c(-c3ccccc3Cl)ccnc2c1)C(=O)N1CCC[C@H](CC(=O)O)C1 (mixture of isomers) [Compound 140, 2-[rac-(3R)-1-[2-[[4-(2-chlorophenyl)-7-quinolyl]oxy]butanoyl]-3-piperidyl]acetic acid]
1 to 10 µM | COC(=O)C1CC(NC(=O)[C@@H](C)Oc2ccc3c(-c4ccccc4Cl)cc(Cl)nc3c2)C1 (stereo partly drawn) [Compound 97, methyl 3-[[(2R)-2-[[2-chloro-4-(2-chlorophenyl)-7-quinolyl]oxy]propanoyl]amino]cyclobutanecarboxylate]
1 to 10 µM | CC(C)(Oc1ccc2c(-c3ccccc3Cl)ccnc2c1)C(=O)N1CCC[C@H](CC(=O)O)C1 [Compound 139, 2-[(3R)-1-[2-[[4-(2-chlorophenyl)-7-quinolyl]oxy]-2-methyl-propanoyl]-3-piperidyl]acetic acid]
1 to 10 µM | CCOC(=O)[C@H]1CCCN(C(=O)[C@@H](C)Oc2ccc3c(-c4ccc(F)cc4C)cc(Cl)nc3c2)C1 [Compound 94, ethyl (3S)-1-[(2R)-2-[[2-chloro-4-(4-fluoro-2-methyl-phenyl)-7-quinolyl]oxy]propanoyl]piperidine-3-carboxylate]
1 to 10 µM | COc1ccccc1-c1ccnc2cc(O[C@H](C)C(=O)N3CCC[C@H](CC(=O)O)C3)ccc12 [Compound 135, 2-[(3R)-1-[(2R)-2-[[4-(2-methoxyphenyl)-7-quinolyl]oxy]propanoyl]-3-piperidyl]acetic acid]
1 to 10 µM | C[C@@H](Oc1ccc2c(-c3c(C(F)(F)F)cccc3C(F)(F)F)ccnc2c1)C(=O)N1CCC[C@H](CC(=O)O)C1 [Compound 151, 2-[(3R)-1-[(2R)-2-[[4-[2,6-bis(trifluoromethyl)phenyl]-7-quinolyl]oxy]propanoyl]-3-piperidyl]acetic acid]
< 0.02 µM | C[C@@H](Oc1ccc2c(-c3ccccc3Br)ccnc2c1)C(=O)N1CCC[C@H](CC(=O)O)C1 [Compound 142, 2-[(3R)-1-[(2R)-2-[[4-(2-bromophenyl)-7-quinolyl]oxy]propanoyl]-3-piperidyl]acetic acid]
0.02 to 0.1 µM | C#Cc1ccccc1-c1ccnc2cc(O[C@H](C)C(=O)N3CCC[C@H](CC(=O)O)C3)ccc12 [Compound 144, 2-[(3R)-1-[(2R)-2-[[4-(2-ethynylphenyl)-7-quinolyl]oxy]propanoyl]-3-piperidyl]acetic acid]
0.1 to 1 µM | COC(=O)[C@@H]1CCCN(C(=O)[C@@H](C)Oc2ccc3c(-c4ccc(F)cc4Cl)ccnc3c2)C1 [Compound 71, methyl (3R)-1-[(2R)-2-[[4-(2-chloro-4-fluoro-phenyl)-7-quinolyl]oxy]propanoyl]piperidine-3-carboxylate]
1 to 10 µM | CCOC(=O)C[C@H]1CCCN(C(=O)[C@@H](C)Oc2ccc3c(-c4ccc(F)cc4Cl)cc(Cl)nc3c2)C1 [Compound 93, ethyl 2-[(3R)-1-[(2R)-2-[[2-chloro-4-(2-chloro-4-fluoro-phenyl)-7-quinolyl]oxy]propanoyl]-3-piperidyl]acetate]
1 to 10 µM | Cc1cc(-c2ccccc2C)c2ccc(O[C@H](C)C(=O)N3CCC[C@H](C(=O)OC(C)(C)C)C3)cc2n1 [Compound 111]
